The text below walks through data of ChEMBL document CHEMBL1201862, “PubChem BioAssay data set” (2004).

Among the test systems are COLO 205; HCT-15; HOP-92; LOX IMVI; MCF7; NCI-H226; OVCAR-3; RPMI-8226; SF-295; SK-MEL-2; SK-OV-3; SNB-19; SNB-75; TK-10; U-251; UACC-62; A549; ACHN; SF-268; SF-539.
Assay in all cases: NCI tumour cell line growth inhibition, 48 h

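These data come from cells grown in 96-well plates and exposed to compound for 48 hours at five concentrations. GI50 marks 50% less growth.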 The source made the active and inactive calls. Cut-off read from the data, not from the text of the source: active = GI50 up to about 1.1 µM and inactive = higher.

As to `Nc1nc(Cl)nc2c1ncn2C1CCC(CO)O1` (centres undefined), the GI50 with COLO 205 was > 100 µM (inactive); in the experiment with HCT-15, over 100 µM; in the experiment on HOP-92 it was > 100 µM (inactive); in the experiment with LOX IMVI it was > 100 µM (inactive); in the experiment on MCF7 it was > 100 µM (inactive); with NCI-H226, > 100 µM (inactive). Further, the GI50 in the experiment with OVCAR-3, in the experiment with RPMI-8226, in the experiment with SF-295, in the experiment with SK-MEL-2, with SK-OV-3 and in the experiment with SNB-19 was > 100 µM (inactive) throughout. The GI50 in the experiment on SNB-75, with TK-10, in the experiment on U-251 and in the experiment on UACC-62 was > 100 µM (inactive) throughout.
For the compound `Cc1ccc2c(c1)C(=O)N(N(C)C)CC(=O)N2`, the GI50 in the experiment with A549 is > 100 µM (inactive); in the experiment on ACHN, > 100 µM (inactive); in the experiment on COLO 205 it was > 100 µM (inactive); in the experiment on HCT-15, over 100 µM; in the experiment with HOP-92, > 100 µM (inactive); with LOX IMVI it was > 100 µM (inactive). Moreover, the GI50 in the experiment on NCI-H226, with OVCAR-3, in the experiment with RPMI-8226, with SF-268, in the experiment with SF-295 and in the experiment on SF-539 was > 100 µM (inactive) in each case. Moreover, the GI50 is > 100 µM (inactive) in the experiment with SK-MEL-2; > 100 µM (inactive) in the experiment on SK-OV-3; > 100 µM (inactive) with SNB-19; 35.2 µM (inactive) with SNB-75; > 100 µM (inactive) in the experiment with TK-10; > 100 µM (inactive) in the experiment on U-251. In addition, the GI50 in the experiment with UACC-62 is > 100 µM (inactive).
With `CN(C)CCCNC(=O)N/N=C/c1ccccn1`, the GI50 with A549 was > 10 µM (inactive); in the experiment with ACHN it was > 10 µM (inactive); with COLO 205, > 10 µM (inactive); with HCT-15, over 10 µM; in the experiment with HOP-92, > 10 µM (inactive); in the experiment on LOX IMVI, > 10 µM (inactive). Besides, the GI50 in the experiment on MCF7, in the experiment on RPMI-8226, with SF-268, in the experiment with SF-295, with SF-539 and in the experiment on SK-OV-3 was > 10 µM (inactive) each time. Besides, the GI50 in the experiment on SNB-75, in the experiment with TK-10 and in the experiment on UACC-62 was > 10 µM (inactive) each time.
For `O=c1ccc2nc3cc(Br)ccc3sc-2c1`, the GI50 is > 100 µM (inactive) in the experiment with A549; 57 µM (inactive) in the experiment on ACHN; > 100 µM (inactive) with COLO 205; 74.1 µM in the experiment with HCT-15; > 100 µM (inactive) in the experiment with HOP-92; > 100 µM (inactive) with NCI-H226. Further, the GI50 in the experiment on OVCAR-3, in the experiment on SF-268, in the experiment on SF-295, with SF-539, in the experiment with SK-MEL-2 and in the experiment on SK-OV-3 was > 100 µM (inactive) each time. Further, the GI50 in the experiment on SNB-19 was > 100 µM (inactive); with SNB-75, > 100 µM (inactive); in the experiment on TK-10, > 100 µM (inactive); with U-251 it was > 100 µM (inactive); in the experiment on UACC-62 it was 30.9 µM (inactive).
In the case of `CCCCC(=O)c1c(O)nc2sccn2c1=O`, the GI50 in the experiment with A549 is > 10 µM (inactive); with ACHN, > 10 µM (inactive); in the experiment with COLO 205 it was > 10 µM (inactive); in the experiment on HCT-15 it was over 10 µM; with LOX IMVI it was > 10 µM (inactive); with MCF7, > 10 µM (inactive). In addition, the GI50 in the experiment on NCI-H226, in the experiment on OVCAR-3, in the experiment on RPMI-8226, in the experiment with SF-268, with SF-295 and with SF-539 was > 10 µM (inactive) throughout. Further, the GI50 in the experiment with SK-MEL-2, in the experiment on SK-OV-3, with SNB-19, in the experiment with SNB-75, in the experiment on TK-10 and in the experiment on U-251 was > 10 µM (inactive) in each case. Moreover, in the experiment on UACC-62, the GI50 is > 10 µM (inactive).
Turning to `[O-][n+]1c2c([n+]([O-])c3ccccc31)-c1cccc3cccc-2c13`, the GI50 with A549 was > 100 µM (inactive); in the experiment on ACHN, > 100 µM (inactive); in the experiment on COLO 205 it was > 100 µM (inactive); with HCT-15, over 100 µM; with HOP-92, 81.3 µM (inactive); in the experiment on LOX IMVI, 63 µM (inactive). The GI50 in the experiment on MCF7 is > 100 µM (inactive); in the experiment with NCI-H226 it was > 100 µM (inactive); in the experiment on OVCAR-3 it was > 100 µM (inactive); in the experiment on SF-268, 29 µM (inactive); with SF-295, 34.3 µM (inactive); in the experiment with SNB-19, > 100 µM (inactive). Moreover, the GI50 with SNB-75 was 18.4 µM (inactive); in the experiment on TK-10, > 100 µM (inactive); with U-251, 43 µM (inactive).
Take `COc1cc2c(cc1OC)CCN=C2`: the GI50 is > 100 µM (inactive) with COLO 205; over 100 µM with HCT-15; > 100 µM (inactive) in the experiment with HOP-92; > 100 µM (inactive) with LOX IMVI; > 100 µM (inactive) with MCF7; > 100 µM (inactive) with NCI-H226. Besides, the GI50 with OVCAR-3, in the experiment with RPMI-8226, in the experiment on SF-295, in the experiment with SK-MEL-2, in the experiment on SK-OV-3 and with SNB-19 was > 100 µM (inactive) throughout. Also, the GI50 in the experiment with SNB-75, with TK-10, in the experiment on U-251 and in the experiment with UACC-62 was > 100 µM (inactive) in each case.
Turning to `CSc1nc(Cl)c2c(n1)Sc1ncnn1C2O` (centres undefined), the GI50 in the experiment on A549 is 19.8 µM (inactive); in the experiment with ACHN it was 4.29 µM (inactive); in the experiment on COLO 205, 0.843 µM (active); with HCT-15, 4.37 µM; in the experiment with HOP-92, 12.6 µM (inactive); with LOX IMVI, 6.37 µM (inactive). In addition, the GI50 with MCF7 is 3.83 µM (inactive); in the experiment on OVCAR-3 it was 7.31 µM (inactive); in the experiment with SF-268, 6.61 µM (inactive); with SF-539, 0.318 µM (active); in the experiment with SK-MEL-2, 17.4 µM (inactive); in the experiment with SK-OV-3, 27.3 µM (inactive). In addition, the GI50 is 28 µM (inactive) with SNB-19, 17.2 µM (inactive) in the experiment on TK-10, 14.9 µM (inactive) in the experiment on U-251 and 12.6 µM (inactive) in the experiment on UACC-62.
For `CC1(C)OC2CC(=O)OCC23C1CC(=O)C1(C)C3CCC2(C)C(c3ccoc3)OC(=O)C3OC321` (centres undefined), the GI50 with A549 was > 125 µM (inactive); with COLO 205 it was > 125 µM (inactive); in the experiment on HCT-15, over 125 µM; in the experiment on LOX IMVI it was > 125 µM (inactive); in the experiment with MCF7, > 70.3 µM (inactive); in the experiment with NCI-H226 it was > 125 µM (inactive). Further, the GI50 with OVCAR-3 was > 125 µM (inactive); in the experiment on RPMI-8226, > 125 µM (inactive); with SF-268, > 125 µM (inactive); in the experiment with SF-295, > 125 µM (inactive); with SF-539, > 117 µM (inactive); with SK-MEL-2, > 125 µM (inactive). The GI50 was > 125 µM (inactive) in the experiment on SK-OV-3; > 125 µM (inactive) in the experiment with SNB-19; 64.7 µM (inactive) with SNB-75; > 125 µM (inactive) in the experiment on U-251; > 125 µM (inactive) in the experiment on UACC-62.
In the case of `CCCCn1/c(=N/C(=S)N(C)C)ss/c1=N\C(=S)N(C)C`, the GI50 in the experiment on A549 is > 100 µM (inactive); in the experiment with ACHN, > 100 µM (inactive); in the experiment with HCT-15, over 100 µM; in the experiment on HOP-92, > 100 µM (inactive); in the experiment on LOX IMVI, > 100 µM (inactive); in the experiment with NCI-H226, 7.28 µM (inactive). The GI50 in the experiment on RPMI-8226, in the experiment with SF-268, with SF-295, in the experiment with SF-539, with SK-MEL-2 and in the experiment on SK-OV-3 was > 100 µM (inactive) each time. The GI50 in the experiment with SNB-19 was > 100 µM (inactive); in the experiment with SNB-75 it was > 100 µM (inactive); in the experiment with TK-10, 6.19 µM (inactive); in the experiment on U-251, > 100 µM (inactive); in the experiment with UACC-62, > 100 µM (inactive).
For `O=C(CCC1C(=O)NC(=S)NC1=O)c1ccc2ccccc2c1`, the GI50 in the experiment with A549 was > 100 µM (inactive); in the experiment on ACHN, > 100 µM (inactive); in the experiment on COLO 205 it was > 100 µM (inactive); in the experiment with HCT-15, over 100 µM; in the experiment on HOP-92, > 100 µM (inactive); with LOX IMVI, > 100 µM (inactive). The GI50 in the experiment with NCI-H226, in the experiment with OVCAR-3, in the experiment on SF-268, in the experiment with SF-295, in the experiment with SF-539 and in the experiment with SK-MEL-2 was > 100 µM (inactive) in each case. For the same compound, the GI50 with SK-OV-3, in the experiment with SNB-19, in the experiment on SNB-75, in the experiment on TK-10, with U-251 and in the experiment with UACC-62 was > 100 µM (inactive) throughout.
Turning to `C[n+]1c(-c2ccc(/C=N/Nc3n[nH]c(=S)n3N/N=C/c3ccc(-c4cn5ccccc5[n+]4C)cc3)cc2)cn2ccccc21`, the GI50 was > 100 µM (inactive) in the experiment on A549; > 100 µM (inactive) in the experiment on ACHN; > 100 µM (inactive) in the experiment with COLO 205; over 100 µM in the experiment with HCT-15; > 100 µM (inactive) in the experiment on MCF7; > 100 µM (inactive) in the experiment on RPMI-8226. Further, the GI50 in the experiment with SF-268, in the experiment on SF-295, with SF-539, in the experiment with SK-OV-3, with SNB-19 and in the experiment on SNB-75 was > 100 µM (inactive) throughout. In addition, the GI50 in the experiment with TK-10 and in the experiment on U-251 was > 100 µM (inactive) throughout.
